Assay results: patent publication US4021553A, “5,6-Diaryl-1,2,4-triazines as topically-active anti-inflammatory agents” (Eli Lilly and Company, priority 1976, dated 1977)

test system: erythemic response (ultraviolet-induced erythema); assay: UV-induced erythemic response inhibition in guinea pigs, topical (modification of the method of Winder); type: in vivo, Albino guinea pigs; settings: dose 100 mcg./12 cm.^2, in ethanol, weighted scores 1.0-2.5 hours
Method: A modification of the method of Winder was used to measure the anti-inflammatory activities of the compounds employed in the method of the present invention; see C. V. Winder, et al., Arch. Int. Pharmacodyn., 116, 261 (1958). Albino guinea pigs of either sex, weighing 225-300 grams, were shaved on the back and chemically depilated (Nair® Lotion Hair Remover, Carter Products, N.Y., N.Y.) 18-20 hours before exposure to ultraviolet light. The animals, in groups of four and bearing identifying ear tags, were treated by applying to an area of skin of about 12 cm.^2 a solution of test compound dissolved in 0.1 cc. of ethanol. The control treatment consisted of administering only the drug vehicle, ethanol, to a group of four animals. Groups of four animals each were given different treatment levels of test compound to obtain dose responses. Random order and blind administration of the test compounds were employed; drug idenfication was not made until after all animals were graded. Immediately prior to drug application, the animals were exposed in groups of four to a high-intensity ultraviolet light for a measured period of time (usually 4-7 seconds). The ultraviolet light source, a Hanovia Lamp (Kroymayer-Model 10), was placed in contact with the skin of the animal's back. A gummed notebook paper reinforcement was affixed to the lamp lens to provide an unexposed area of contrast for grading the erythema. Beginning one hour after exposure and thereafter at half-hour intervals for another 1 1/2 hours, the degree of resulting erythema was graded by an arbiturary scoring system based upon the degree of contrast and redness formed. […]
Total scores from each treatment group of four guinea pigs were prepared to the control treatment, and the percent inhibition was calculated as follows: [formula]
A dose-response graph was obtained by plotting dose versus percent inhibition, the points representing the average of each treatment group of four guinea pigs. […] The plotted or calculated ED50 for the particular compound tested, where available, is given in the last column of Table I.

Row | SMILES | % Inhibition compared with control (erythemic response) [%]
1 | COc1ccc(-c2nnc(SCc3ccccc3)nc2-c2ccc(OC)cc2)cc1 [CH2 C6 H5 S 1 OCH3 OCH3, 3-benzylthio-5,6-bis(4-methoxyphenyl)-1,2,4-triazine] | 49
2 | COc1ccc(-c2nnc(SC(C)C)nc2-c2ccc(OC)cc2)cc1 [CH(CH3)2 S 1 OCH3 OCH3, 3-isopropylthio-5,6-bis(4-methoxyphenyl)-1,2,4-triazine] | 35
3 | COc1ccc(-c2ncnnc2-c2ccc(OC)cc2)cc1 [H -- -- OCH3 OCH3, 5,6-bis(4-methoxyphenyl)-1,2,4-triazine] | 53
